Laboratory results published in paper PMC7955127, “Preclinical small molecule WEHI-7326 overcomes drug resistance and elicits response in patient-derived xenograft models of human treatment-refractory tumors” (Cell Death & Disease, 2021).

Assay: Acute toxicity study, single intravenous dose (non-GLP)
Format: in vivo, Sprague-Dawley rats
Settings: female rats; for Lung - focal red areas medial right lobe (2 mm diameter) (incidence at necropsy) / Lung - haemorrhagic area right caudal lobe (1mm diameter) (incidence at necropsy) / Multifocal red petechiae on all lung lobes (incidence at necropsy) / Pale yellow liver (minimal) (incidence at necropsy) / ALP / ALT / APTT / AST / Albumin / Albumin/Globulin / Bilirubin (Total) / Calcium / Chloride / Cholesterol / Creatinine / Globulin / Glucose / HCT / HGB / MCH / MCHC / MCV / PLT / PT / Phosphate / Potassium / Protein (Total) / RBC / Retc. / Sodium / Triglycerides / Urea / WBC: day 15; for ALP / ALT / APTT / AST / Albumin / Albumin/Globulin / Bilirubin (Total) / Calcium / Chloride / Cholesterol / Creatinine / Globulin / Glucose / HCT / HGB / MCH / MCHC / MCV / PLT / PT / Phosphate / Potassium / Protein (Total) / RBC / Retc. / Sodium / Triglycerides / Urea / WBC: mean ± SD
Protocol: This acute toxicity study included a satellite group for toxicokinetic assessment. The toxicity study was comprised of 12 male and 12 female rats, which were allocated into four groups of three males and three females. The toxicity of the test substance, WEHI-7326 dihydrochloride (referred to as WEHI-7326 from here), was tested at three dose concentrations of 5 mg/kg, 15 mg/kg and 30 mg/kg administered as a single dose via intravenous tail vein injection. The vehicle control, D-(+)-Glucose, was formulated at 5% w/v and administered per the above regime. On Study Day 15, all animals were terminated with blood collected for biochemistry, haematology and coagulation analysis before undergoing gross necropsy by a US board certified veterinary pathologist. The toxicokinetic satellite group comprised of 30 male rats which were allocated into four groups of three males in the vehicle control group and nine males in each of the three treatment groups. All treatment group animals were then allocated into three subgroups (A, B and C) and bled pre-dose, then 2min, 10min, 0.5h, 2h, 6h, 12h and 24h post-dose. All vehicle control group animals weren’t allocated to a specific subgroup but were bled at 10min and 12h post-dose. All TK animals were then terminated after the final blood collection. Dosing was suspended on Study Day 1 for both the Toxicity and Toxicokinetic Study animals following adverse reactions which lead to the early termination of two animals (one male treated with mid-dose WEHI-7326 from the Toxicity Study and one male treated with high-dose WEHI-7326 from the Toxicokinetic Study) approximately 5-10 minutes post-treatment. After consultation with the Sponsor, the following changes were made to the Study Design:
At the revised high dose of 20mg/kg, all male rats had to be terminated prematurely also due to reaching their body weight loss endpoint of >10% loss. […] Significant findings in clinical pathology outcomes were considered incidental and unrelated to test article treatment. The majority of macroscopic findings at necropsy were also considered to be incidental, however the findings of white streaks through the testes of male animals treated with WEHI-7326 may be related to treatment. Body weights were measured once prior to dose administration, then daily for the duration of the study and at termination. Clinical observations were performed on a daily basis.
The study followed test guideline OECD No. 420 (2001) “Acute Oral Toxicity - Fixed Dose Procedure” with the exception that the route of administration was intravenous (i.v.).

COc1ccc(CNc2nc(NCc3ccc(CN)cc3)nc(NN3CC(=O)NC3=O)n2)cc1 [WEHI-7326]
Body weight loss >10% (termination required) (incidence) (5 mg/kg single i.v.): 0/3 | Mild fur loss around both eyes from Study Day 10 to 15 (incidence) (5 mg/kg single i.v.): 0/3 | Mild impairment of gait and lack of response to stimuli up to 10 minutes post-dose (incidence) (5 mg/kg single i.v.): 0/3 | No remarkable observations (incidence) (5 mg/kg single i.v.): 3/3 | Lung - focal red areas medial right lobe (2 mm diameter) (incidence at necropsy) (5 mg/kg single i.v.): 0/3 | Lung - haemorrhagic area right caudal lobe (1mm diameter) (incidence at necropsy) (5 mg/kg single i.v.): 0/3 | Multifocal red petechiae on all lung lobes (incidence at necropsy) (5 mg/kg single i.v.): 1/3 | Pale yellow liver (minimal) (incidence at necropsy) (5 mg/kg single i.v.): 1/3 | ALP (5 mg/kg single i.v.): 286 ± 65 U/L | ALT (5 mg/kg single i.v.): 54 ± 11 U/L | APTT (5 mg/kg single i.v.): 17.2 ± 1.9 s | AST (5 mg/kg single i.v.): 93 ± 13 U/L | Albumin (5 mg/kg single i.v.): 37.3 ± 3.1 g/L | Albumin/Globulin (5 mg/kg single i.v.): 1.6 ± 0.4 Ratio | Bilirubin (Total) (5 mg/kg single i.v.): 0.8 ± 0.1 µM | Calcium (5 mg/kg single i.v.): 2.59 ± 0.07 mM | Chloride (5 mg/kg single i.v.): 102.4 ± 0.5 mM | Cholesterol (5 mg/kg single i.v.): 1.98 ± 0.21 mM | Creatinine (5 mg/kg single i.v.): 30 ± 3 µM | Globulin (5 mg/kg single i.v.): 23.7 ± 3.4 g/L | Glucose (5 mg/kg single i.v.): 7.57 ± 0.07 mM | HCT (5 mg/kg single i.v.): 0.45 ± 0.01 L/L | HGB (5 mg/kg single i.v.): 137.3 ± 4.9 g/L | MCH (5 mg/kg single i.v.): 18.87 ± 0.45 pg | MCHC (5 mg/kg single i.v.): 303.0 ± 4.4 g/L | MCV (5 mg/kg single i.v.): 62.3 ± 0.9 fL | PLT (5 mg/kg single i.v.): 1080.0 ± 206.7 10^9/L | PT (5 mg/kg single i.v.): 21.9 ± 1.0 s | Phosphate (5 mg/kg single i.v.): 1.75 ± 0.14 mM | Potassium (5 mg/kg single i.v.): 5.30 ± 0.14 mM | Protein (Total) (5 mg/kg single i.v.): 61.0 ± 0.4 g/L | RBC (5 mg/kg single i.v.): 7.27 ± 0.14 10^12/L | Retc. (5 mg/kg single i.v.): 3.76 ± 0.62% | Sodium (5 mg/kg single i.v.): 138 ± 1 mM | Triglycerides (5 mg/kg single i.v.): 0.86 ± 0.29 mM | Urea (5 mg/kg single i.v.): 6.56 ± 1.18 mM | WBC (5 mg/kg single i.v.): 11.28 ± 4.18 10^9/L | Body weight loss >10% (termination required) (incidence) (15 mg/kg single i.v.): 2/3 | Mild fur loss around both eyes from Study Day 10 to 15 (incidence) (15 mg/kg single i.v.): 0/3 | Mild impairment of gait and lack of response to stimuli up to 10 minutes post-dose (incidence) (15 mg/kg single i.v.): 0/3 | No remarkable observations (incidence) (15 mg/kg single i.v.): 1/3 | Lung - focal red areas medial right lobe (2 mm diameter) (incidence at necropsy) (15 mg/kg single i.v.): 0/1 | Lung - haemorrhagic area right caudal lobe (1mm diameter) (incidence at necropsy) (15 mg/kg single i.v.): 0/1 | Multifocal red petechiae on all lung lobes (incidence at necropsy) (15 mg/kg single i.v.): 0/1 | Pale yellow liver (minimal) (incidence at necropsy) (15 mg/kg single i.v.): 0/1 | ALP (15 mg/kg single i.v.): 218 ± 0 U/L | ALT (15 mg/kg single i.v.): 55 ± 0 U/L | APTT (15 mg/kg single i.v.): 18.6 ± 0.0 s | AST (15 mg/kg single i.v.): 73 ± 0 U/L | Albumin (15 mg/kg single i.v.): 37.7 ± 0 g/L | Albumin/Globulin (15 mg/kg single i.v.): 1.3 ± 0 Ratio | Bilirubin (Total) (15 mg/kg single i.v.): 1.0 ± 0 µM | Calcium (15 mg/kg single i.v.): 2.48 ± 0 mM | Chloride (15 mg/kg single i.v.): 102.5 ± 0 mM | Cholesterol (15 mg/kg single i.v.): 1.59 ± 0 mM | Creatinine (15 mg/kg single i.v.): 27 ± 0 µM | Globulin (15 mg/kg single i.v.): 28.8 ± 0 g/L | Glucose (15 mg/kg single i.v.): 7.31 ± 0 mM | HCT (15 mg/kg single i.v.): 0.45 ± 0.00 L/L | HGB (15 mg/kg single i.v.): 136.0 ± 0.0 g/L | MCH (15 mg/kg single i.v.): 18.70 ± 0.00 pg | MCHC (15 mg/kg single i.v.): 306.0 ± 0.0 g/L | MCV (15 mg/kg single i.v.): 60.90 ± 0.0 fL | PLT (15 mg/kg single i.v.): 970.0 ± 0.0 10^9/L | PT (15 mg/kg single i.v.): 19.9 ± 0.0 s | Phosphate (15 mg/kg single i.v.): 1.53 ± 0 mM | Potassium (15 mg/kg single i.v.): 4.53 ± 0 mM | Protein (Total) (15 mg/kg single i.v.): 66.5 ± 0 g/L | RBC (15 mg/kg single i.v.): 7.31 ± 0.00 10^12/L | Retc. (15 mg/kg single i.v.): 4.52 ± 0.00% | Sodium (15 mg/kg single i.v.): 140 ± 0 mM | Triglycerides (15 mg/kg single i.v.): 0.76 ± 0 mM | Urea (15 mg/kg single i.v.): 6.91 ± 0 mM | WBC (15 mg/kg single i.v.): 10.28 ± 0.00 10^9/L | Body weight loss >10% (termination required) (incidence) (20 mg/kg single i.v.): 0/3 | Mild fur loss around both eyes from Study Day 10 to 15 (incidence) (20 mg/kg single i.v.): 1/3 | Mild impairment of gait and lack of response to stimuli up to 10 minutes post-dose (incidence) (20 mg/kg single i.v.): 1/3 | No remarkable observations (incidence) (20 mg/kg single i.v.): 2/3 | Lung - focal red areas medial right lobe (2 mm diameter) (incidence at necropsy) (20 mg/kg single i.v.): 1/3 | Lung - haemorrhagic area right caudal lobe (1mm diameter) (incidence at necropsy) (20 mg/kg single i.v.): 1/3 | Multifocal red petechiae on all lung lobes (incidence at necropsy) (20 mg/kg single i.v.): 0/3 | Pale yellow liver (minimal) (incidence at necropsy) (20 mg/kg single i.v.): 0/3 | ALP (20 mg/kg single i.v.): 171 ± 38 U/L | ALT (20 mg/kg single i.v.): 70 ± 9 U/L | APTT (20 mg/kg single i.v.): 17.3 ± 1.0 s | AST (20 mg/kg single i.v.): 93 ± 14 U/L | Albumin (20 mg/kg single i.v.): 36.5 ± 1.1 g/L | Albumin/Globulin (20 mg/kg single i.v.): 1.3 ± 0.1 Ratio | Bilirubin (Total) (20 mg/kg single i.v.): 1.2 ± 0.3 µM | Calcium (20 mg/kg single i.v.): 2.71 ± 0.12 mM | Chloride (20 mg/kg single i.v.): 100.5 ± 0.7 mM | Cholesterol (20 mg/kg single i.v.): 2.16 ± 0.31 mM | Creatinine (20 mg/kg single i.v.): 38 ± 5 µM | Globulin (20 mg/kg single i.v.): 27.9 ± 1.2 g/L | Glucose (20 mg/kg single i.v.): 7.29 ± 0.68 mM | HCT (20 mg/kg single i.v.): 0.46 ± 0.01 L/L | HGB (20 mg/kg single i.v.): 134.3 ± 3.2 g/L | MCH (20 mg/kg single i.v.): 18.53 ± 0.84 pg | MCHC (20 mg/kg single i.v.): 290.7 ± 1.5 g/L | MCV (20 mg/kg single i.v.): 63.7 ± 2.5 fL | PLT (20 mg/kg single i.v.): 957.0 ± 63.5 10^9/L
